From patent US6011000A, “Compositions for the treatment of blood disorders” (priority 1995, dated 2000)

Tests used:
[1] = test system: γ-globin mRNA; conditions: patients with globin disorders; cited from earlier work
[2] = test system: fetal globin production; conditions: cited from earlier work
[3] = test system: HSS-II region of the locus control region (LCR); test: In vivo footprinting of HSS-II; parameters: species or system human
Description: Erythroid cell-rich fractions were prepared from patients' peripheral blood or bone marrow before and during treatment, and were in vivo methylated using DMS. Ligation-mediated polymerase chain reaction (LM-PCR) was performed (J. L. Mueller et al., Sci. 246:780-86, 1989). Briefly, 3-7 μg of DNA was suspended in 15 μl of solution A (40 mM Tris-HCl, pH 7.7, 50 mM NaCl) containing […] of primer. First-strand synthesis was performed by adding 7.5 μl of solution B (20 mM MgCl2, 20 mM DTT, 60 μM dNTP) and 1.5 μl of 1:4 diluted Sequenase version 2.0 (United States Biochemical; Cleveland, Ohio) with TE and incubating at 50° C. for 10 minutes. The reaction was quenched by heating at 68° C. for 10 minutes, adding 6 μl of 310 mM Tris-HCl, pH 7.7, and subsequently extracting with phenol/chloroform/isoamyl alcohol (25:24:1) and with ether. […] All of the footprints were analyzed two or more times to ensure reproducibility.
Several lines of evidence obtained from DNA transfection and transgenic experiments have corroborated the functional importance of HSS-II of the LCR in regulating β-like globin gene expression. […] In view of these observations, the patterns of in vivo footprints of HSS-II in erythroid cell preparations that were obtained from pre-treatment and post-treatment blood samples were analyzed. […]

[4] = test system: γ-globin promoter (-61 construct, K562 cells); assay type: cell-based, human
Text: Functional assay underscores the important role of FRE-γ1 in γ-globin gene expression in K562 cells. To ascertain whether the FRE elements of the γ-globin promoter that were identified by in vivo footprinting were indeed involved in arginine butyrate inducibility for γ-globin gene expression, a series of 5' deletion constructs of the γ-globin promoter, extending from -256 to -61, were constructed and linked them to the NEO gene. Activity of the NEO gene of these constructs, in response to arginine butyrate treatment, was examined by transfecting these reporters into K562 cells. In K562 cells, a construct driven by 256 bp of promoter was able to direct NEO activity expression, resulting in colony formation. […] Deletion to position -61 reduced promoter activity to 33-40% of the activity seen with the -256 bp construct.

[5] = test system: γ-globin promoter fragment containing FRE-γ1; test: Gel mobility shift assay with FRE-γ1 promoter fragment; parameters: species or system human
[6] = test system: BFU-e (burst forming unit-erythroid); test: BFU-e stimulation (colony growth) in cultured peripheral blood mononuclear cells; assay type: cell-based; conditions: Homo sapiens, PBMC, read-out: more BFU-e colonies from the same number of mononuclear cells than control cultures
Description: Peripheral blood was collected from normal volunteers and patients with anemia due to sickle cell disease or thalassemia Mononuclear cells were isolated by Ficoll-Hypaque (Pharmacia Biotech; Piscataway, N.J.) centrifugation and cultured in Iscove's Modified Dulbecco's Media (IMDM; GIBCO/BRL; Grand Island, N.Y.) supplemented with 10% fetal calf serum, 300 μg/ml glutamine, 3 units/ml IL 3 (Amgen; Thousand Oaks, Calif.), and 2 units/ml erythropoietin (Terry Fox Labs; Vancouver, B.C.). Chemical compounds were obtained from Sigma Chemical (St. Louis, Mo.) or Aldrich Chemical (Milwaukee, Wis.), unless otherwise indicated, and formulated into pharmaceutical compositions by dissolving in aqueous solutions of media or sterile water pH adjusted to about 7.4. Solutions were sterilized by passage at least once through 0.22 micron Nalgene filters and added to cell cultures at final concentrations that are pharmaceutically achievable in vivo (typically between about 0.1 mM to 2.0 MM). Cells were incubated with compounds for between 13-14 days at 37° C. in humidified 5% CO2, and fed and passed, as necessary. Colony growth, proportion of fetal globin-expressing cells and amounts of fetal globin production were assayed. Results are presented in Table 1 as BFU-e stimulation (colony growth). […]

[7] = erythroblast nuclear extracts of thalassemic patients (FIG. 17)

| SMILES | levels of γ-globin mRNA [1] | stimulation of fetal globin production [2] | footprints over HSS-II ([3]; erythroblasts of treated sickle cell patient (FIG. 15)) | region of new protection upstream of the GATA-1 binding sequence ([3]; treated patients (FIG. 15)) | induction of construct activity [4] | new binding activity (activator) [5, 7] | other binding activity (repressor) [5, 7] | activator and repressor bands in non-responder ([5]; patient with sickle cell anemia who did not respond) | activation at 100 µM [6] [%] |
| --- | --- | --- | --- | --- | --- | --- | --- | --- | --- |
| CCCC(=O)O [AB, arginine butyrate] | increase in response to butyrate treatment | effective in stimulating fetal globin production | novel in vivo footprints that were not seen in a pre-treatment sample became apparent | about 40 bp | 2.5-4 fold | a new binding activity appeared | disappeared | no increase in the intensity of the activator band or loss of the repressor band |  |
| O=C(O)COc1ccccc1 [PAA, Phenoxyacetic acid] |  |  |  |  |  |  |  |  | 135 |
